Values of other authors as cited in article PMC4360375 (Journal of Medicinal Chemistry, 2015).

System: GABA uptake, rat synaptosome
Settings: literature data set; ref 10.1021/jm981027k; cited from earlier work

| SMILES | pIC50 |
| --- | --- |
| Cc1csc(/C(=N/OCCN2CCC[C@H](C(=O)O)C2)c2ccccc2C)c1 [An_1999/3_21, s1cc(cc1/C(=N/OCCN1C[C@H](CCC1)C(O)=O)/c1ccccc1C)C] | 5.062 |
| Cc1csc(/C(=N\OCCN2CCC[C@@H](C(=O)O)C2)c2ccccc2C)c1 [An_1999/3_22, s1cc(cc1/C(=N\OCCN1C[C@@H](CCC1)C(O)=O)/c1ccccc1C)C] | 6.585 |
| Cc1csc(/C(=N\OCCN2CCC[C@H](C(=O)O)C2)c2ccccc2C)c1 [An_1999/3_23, s1cc(cc1/C(=N\OCCN1C[C@H](CCC1)C(O)=O)/c1ccccc1C)C] | 5.917 |
| Cc1ccccc1/C(=N/OCCN1CCC[C@@H](C(=O)O)C1)c1sccc1C [An_1999/3_39, s1ccc(C)c1/C(=N\OCCN1C[C@@H](CCC1)C(O)=O)/c1ccccc1C] | 7.155 |
| Cc1ccccc1/C(=N\OCCN1CCC[C@@H](C(=O)O)C1)c1sccc1C [An_1999/3_40, s1ccc(C)c1/C(=N/OCCN1C[C@@H](CCC1)C(O)=O)/c1ccccc1C] | 7.046 |
| Cc1ccccc1C(=COCCN1CCC[C@@H](C(=O)O)C1)c1ccccc1C [An_1999/3_45, O(\C=C(\c1ccccc1C)/c1ccccc1C)CCN1C[C@@H](CCC1)C(O)=O] | 7.699 |
| O=C(O)[C@@H]1CCCN(CCOC=C(c2ccccc2)c2ccccc2)C1 [An_1999/3_47, O(\C=C(\c1ccccc1)/c1ccccc1)CCN1C[C@@H](CCC1)C(O)=O] | 7.066 |
| O=C(O)[C@H]1CCCN(CCON=C(c2ccccc2)c2ccccc2)C1 [An_1999/3_61, O(\N=C(\c1ccccc1)/c1ccccc1)CCN1C[C@H](CCC1)C(O)=O] | 6.377 |
| Cc1ccccc1C(=NOCCN1CCC[C@@H](C(=O)O)C1)c1ccccc1C [An_1999/3_62, O(\N=C(\c1ccccc1C)/c1ccccc1C)CCN1C[C@@H](CCC1)C(O)=O] | 7.155 |
| Cc1ccccc1C(=NOCCN1CCC[C@H](C(=O)O)C1)c1ccccc1C [An_1999/3_63, O(\N=C(\c1ccccc1C)/c1ccccc1C)CCN1C[C@H](CCC1)C(O)=O] | 6.886 |
| Cc1ccccc1C(=NOCCN1CCC=C(C(=O)O)C1)c1ccccc1C [An_1999/3_64, O(\N=C(\c1ccccc1C)/c1ccccc1C)CCN1CC(=CCC1)C(O)=O] | 7.222 |
| O=C(O)[C@@H]1CCCN(CCO/N=C(\c2ccc(F)cc2F)c2cc(F)ccc2F)C1 [An_1999/3_67, Fc1cc(F)ccc1/C(=N\OCCN1C[C@@H](CCC1)C(O)=O)/c1cc(F)ccc1F] | 7.301 |
| O=C(O)[C@@H]1CCCN(CCON=C(c2ccc(F)cc2F)c2ccc(F)cc2F)C1 [An_1999/3_68, Fc1cc(F)ccc1\C(=N\OCCN1C[C@@H](CCC1)C(O)=O)\c1ccc(F)cc1F] | 7 |
| Cc1ccccc1/C(=C/OCCN1CCC[C@@H](C(=O)O)C1)c1sccc1C [An_1999/3_69, s1ccc(C)c1/C(=C\OCCN1C[C@@H](CCC1)C(O)=O)/c1ccccc1C] | 7.77 |
| Cc1ccccc1C(=COCCN1CCC=C(C(=O)O)C1)c1ccccc1C [An_1999/3_70, O(\C=C(\c1ccccc1C)/c1ccccc1C)CCN1CC(=CCC1)C(O)=O] | 7.585 |
| Cc1ccccc1/C(=C\OCCN1CCC[C@@H](C(=O)O)C1)c1cccc(F)c1 [An_1999/3_71, Fc1cc(ccc1)/C(=C/OCCN1C[C@@H](CCC1)C(O)=O)/c1ccccc1C] | 7.523 |
| Cc1ccccc1/C(=C\OCCN1CCC=C(C(=O)O)C1)c1ccccc1F [An_1999/3_72, Fc1ccccc1/C(=C/OCCN1CC(=CCC1)C(O)=O)/c1ccccc1C] | 7.699 |
| O=C(O)[C@@H]1CCCN(CCO/C=C(\c2ccccc2)c2ccccc2Cl)C1 [An_1999/3_73, Clc1ccccc1\C(=C\OCCN1C[C@@H](CCC1)C(O)=O)\c1ccccc1] | 7.921 |
| O=C(O)[C@@H]1CCCN(CCON=C(c2ccccc2Cl)c2ccccc2Cl)C1 [An_1999/3_74, Clc1ccccc1\C(=N\OCCN1C[C@@H](CCC1)C(O)=O)\c1ccccc1Cl] | 7.398 |
| O=C(O)[C@@H]1CCCN(CCO/N=C(/c2cccc(F)c2)c2ccccc2F)C1 [An_1999/3_75, Fc1ccccc1\C(=N/OCCN1C[C@@H](CCC1)C(O)=O)\c1cc(F)ccc1] | 6.658 |
